{
  "source": "ChEMBL document CHEMBL1128314",
  "about": "“Absolute configuration of (+)-[fluoro(hydroxyphenylphosphinyl)methyl]-phosphonic acid, a specific inhibitor of Na(+)-gradient-dependent Na(+)-phosphate cotransport across renal brush border membrane, by X-ray crystallographic analysis of its (-)-quinine salt” (J Med Chem, 1995)",
  "organism": "Rattus norvegicus",
  "assay": "The compound was tested for inhibition of Sodium-Phosphate co-transport in rat renal Brush border membrane",
  "type": "functional",
  "data": [
    {"smiles": "O=P(O)(O)C(F)P(=O)(O)c1ccccc1", "note": "(stereo unspecified)", "values": [
      {"measurement": "Ki", "result": 360, "unit": "µM"}
    ]}
  ]
}
